Assay results reported in US20230132378A9, “COMPOSITIONS AND METHODS FOR TREATING HEMORRHAGIC STROKE” (UNM RAINFOREST INNOVATIONS, priority 2017, published 2023).

Columns and labels:
ICH-induced brain damage = assay: Brain damage by T2-weighted MRI after collagenase-induced ICH; format: in vivo, rat
Description: (§1) The Laboratory Animal Care and Use Committee of the University of New Mexico approved all experimental protocols. The animals were used in compliance with the NIH Guide for Care and Use of Laboratory Animals. Male Sprague Dawley rats (Charles River Laboratories, Inc., Wilmington, Mass.) weighing 290 g to 320 g were anesthetized with isoflurane (5% for induction, 2% for maintenance) in N2O/O2 (70:30%) during surgical procedures, and the body temperature was maintained at 37.5° C.±0.5° C. using a heating pad. A small burr hole was made at 3.5 mm right of the bregma. 0.2 U collagenase (Sigma-Aldrich, St. Louis, Mo.) in 1 μl sterile saline was injected to 6.0 mm deep through the burr hole. The needle was removed at five minutes after collagenase injection to prevent backflow. A total of 49 rats were used in this study.
All multimodal magnetic resonance imaging (MRI) of the rat was performed by using a 4.7-Tesla MRI scanner (Bruker Biospin, Billerica, Mass.), which was equipped with a 40-cm bore, a 660 mT/m (rise time within 120 μs) gradient and shim systems (Bruker Biospin, Billerica, Mass.). The rats were anaesthetized with 2% isoflurane (Clipper Distributing Company, LLC, St. Joseph, Mo.) during MRI. At the same time respiration and heart rate were monitored. The body temperature of the rats was maintained at 37.0° C.±0.5° C. […]

[1] = tested on: cell death in the hemorrhagic brain; assay: Brain cell death by TUNEL assay after collagenase-induced ICH; format: in vivo, rat
Description: as §1, with “study. […]” for “study.”
A standard terminal deoxynucleotidyl transferase—mediated dUTP nick-end labeling (TUNEL) procedure for frozen tissue sections was performed (Click-iT TUNEL Alexa Fluor 488 Imaging Assay kit (Thermo Fisher Scientific, Waltham, Mass.). Histological images were captured on a fluorescence microscope (Olympus IX71, Olympus Corp., Center Valley, Pa.) with a TRITC dichroic mirror.

ferrochelatase = molecular target: T1, ferrochelatase (Homo sapiens, UniProt P22830); conditions: cited from earlier work
T1 sequence (P22830 55-423): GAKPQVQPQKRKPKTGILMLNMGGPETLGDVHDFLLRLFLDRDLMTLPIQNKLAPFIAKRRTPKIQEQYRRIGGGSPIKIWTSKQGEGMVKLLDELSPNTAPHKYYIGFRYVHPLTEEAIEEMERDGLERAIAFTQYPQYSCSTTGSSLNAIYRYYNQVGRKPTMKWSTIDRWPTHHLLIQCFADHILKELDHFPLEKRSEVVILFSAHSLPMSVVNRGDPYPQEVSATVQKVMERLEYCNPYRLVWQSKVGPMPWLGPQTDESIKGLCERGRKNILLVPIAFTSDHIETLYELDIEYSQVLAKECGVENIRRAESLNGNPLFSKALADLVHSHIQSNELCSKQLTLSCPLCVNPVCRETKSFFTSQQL

[2] = tested on: ZnPP generation in the hemorrhagic brain; assay: ZnPP autofluorescence imaging on hemorrhagic brain slices; format: in vivo, rat
Description: as §1
N,N,N′,N′-tetrakis-(2-Pyridylmethyl)ethylenediamine (TPEN, Sigma-Aldrich, St. Louis, Mo.) was dissolved in dimethyl sulfoxide (DMSO) to 25 mg/ml and then further diluted in physiological saline to a final concentration of 2.5 mg/ml. 10 mg/kg TPEN was intraperitoneal injected at one hour before collagenase injection. Saline with 10% DMSO was used as control.
N-methyl protoporphyrin IX (Santa Cruz Biotechnology, Inc., Dallas, Tex.), a ferrochelatase inhibitor was dissolved in DMSO to 200 mg/ml and then further diluted in physiological saline to a final concentration of 20 mg/ml. […]

primary astrocytes = assay: Cytotoxicity (Cytotox 96 LDH release) in primary astrocytes; format: cell-based; conditions: three-hour exposure, 5 and 7.5 μM
Description: Astrocytic death rate was measured using Cytotox 96 nonradioactive cytotoxicity assay kit (Promega, Madison, Wis.), which quantitatively measures lactate dehydrogenase (LDH) release from dead cells. Astroytes (5×10^3 cells/well) were seeded into 96-well microtiter plates. Following three hours normoxia or hypoxia treatment, 50 μl of the reconstituted substrate mixture was added to each well of the plate. Thirty minutes later, 50 μl of the stop solution was added to each well, and the absorbance was measured at 490 nm in a microplate reader (Bio-Rad 3350, Bio-Rad Laboratories, Inc. Hercules, Calif.). Triton-X 100-treated cells were used as 100% cell death control. The cell death rate was calculated by using the formula: Cell death rate=(Experimental absorbance value−culture medium absorbance value)/(Triton-X 100-treated absorbance value−culture medium absorbance value).

primary neurons = assay: Cytotoxicity (Cytotox 96 LDH release) in primary neurons; format: cell-based; conditions: for neuron toxicity under hypoxia / cell death in normoxia: three-hour exposure; for neuron toxicity under hypoxia: 2.5-7.5 μM; for cell death in normoxia: any concentration tested
whole rat blood = assay: ZnPP generation in whole blood with zinc under hypoxia; conditions: 100 μM zinc, hypoxia three hours, P=0.00096
Description: The animals were euthanized at 24 hours after collagenase injection. The brains were harvested and cut into 2-mm thick coronal slice. The tissue with visible blood at the hemorrhagic hemisphere of each slice was collected. And the tissue at the corresponding location at the contralateral hemisphere was also collected. The tissue was homogenized on ice in ethanol. After centrifugation at 13,000×g, the fluorescence intensity (excitation=416 nm, emission=588 nm) was determined using a SpectraMax M2 Multi-Mode Microplate Readers (Molecular Devices LLC, Sunnyvale, Calif.) as previously described (Nakamura et al., 2011. J Control Release 155(3):367-375. After being treated with heparin as an anti-coagulant, 50 μl blood was diluted in ethanol. Followed by centrifugation, the fluorescence intensity of ZnPP in the ethanol extract supernatant was measured.
Blood was drawn from normal Sprague Dawley rats. Blood was subjected to hypoxia by incubating in a humidified airtight chamber (Billups-Rothenberg, Inc., San Diego, Calif.) equipped with an air lock and flushed with 95% N2/5% CO2 for 15 minutes. Then the chamber was scaled and kept at 37° C. for three hours.

[3] = tested on: labile zinc accumulation in brain tissue after hemorrhagic stroke; assay: Labile zinc staining (Fluozin-3) on brain slices after collagenase-induced ICH; format: in vivo, rat; conditions: rats pretreated with 10 mg/kg i.p. one hour before collagenase injection; versus saline control
Description: as §1, with “study. […]” for “study.”
To detect labile zinc in brain tissue, cryosections 16 μm thick were stained with the zinc-specific membrane-permeable fluorescent dyes Fluozin-3 (Invitrogen, Thermo Fisher Scientific, Carlsbad, Calif.). […] After washing in saline, images were acquired by a fluorescence microscope (Olympus IX71, Olympus Corp., Center Valley, Pa.) with a GFP dichroic mirror.

[4] = tested on: ZnPP in hemorrhagic hemisphere tissue; assay: Fluorescence spectrophotometry of ZnPP in brain tissue extract; format: in vivo, rat; conditions: TPEN pretreatment
Description: as §1, with “study. […]” for “study.”
The animals were euthanized at 24 hours after collagenase injection. […] After centrifugation at 13,000×g, the fluorescence intensity (excitation=416 nm, emission=588 nm) was determined using a SpectraMax M2 Multi-Mode Microplate Readers (Molecular Devices LLC, Sunnyvale, Calif.) as previously described (Nakamura et al., 2011. J Control Release 155(3):367-375. After being treated with heparin as an anti-coagulant, 50 μl blood was diluted in ethanol. Followed by centrifugation, the fluorescence intensity of ZnPP in the ethanol extract supernatant was measured.

[5] = tested on: brain of permanent MCAO rat model; assay: ZnPP injection into brain parenchyma of MCAO or normal rats, T2-weighted MRI; format: in vivo; conditions: MCAO rats, ZnPP 10 μg/kg into brain parenchyma of ischemic side
Description: All multimodal magnetic resonance imaging (MRI) of the rat was performed by using a 4.7-Tesla MRI scanner (Bruker Biospin, Billerica, Mass.), which was equipped with a 40-cm bore, a 660 mT/m (rise time within 120 μs) gradient and shim systems (Bruker Biospin, Billerica, Mass.). The rats were anaesthetized with 2% isoflurane (Clipper Distributing Company, LLC, St. Joseph, Mo.) during MRI. At the same time respiration and heart rate were monitored. The body temperature of the rats was maintained at 37.0° C.±0.5° C. The success of the intracerebral hemorrhage model and brain damage was estimated by T2-weighted images. T2-weighted images were acquired with a fast spin-echo sequence (rapid acquisition with relaxation enhancement (RARE)) (Repetition Time (TR)/Echo Time (TE)=5,000 ms/56 ms, Field of View (FOV)=4 cm×4 cm, slice thickness=1 mm, inter-slice distance=1.1 mm, number of slices=12, matrix=256×256, number of average=3).
Middle cerebral artery occlusion (MCAO) surgery was used to induce focal cerebral ischemia through intraluminal filament methods as described previously (Zhao et al., 2014, Stroke 45:1139-1147). The animals underwent right MCAO for 24 hours. ZnPP (10 μg/kg) in […] or 5 μl saline was injected to 6.0 mm deep at 3.5 mm right of the bregma through a burr hole on normal or MCAO rat, 10 minutes after MCAO onset.

heme oxygenase-1 (HO-1) = molecular target: T2, heme oxygenase-1 (HO-1) (Homo sapiens, UniProt P09601); conditions: levels as low as; cited from earlier work
T2 sequence (P09601 1-288): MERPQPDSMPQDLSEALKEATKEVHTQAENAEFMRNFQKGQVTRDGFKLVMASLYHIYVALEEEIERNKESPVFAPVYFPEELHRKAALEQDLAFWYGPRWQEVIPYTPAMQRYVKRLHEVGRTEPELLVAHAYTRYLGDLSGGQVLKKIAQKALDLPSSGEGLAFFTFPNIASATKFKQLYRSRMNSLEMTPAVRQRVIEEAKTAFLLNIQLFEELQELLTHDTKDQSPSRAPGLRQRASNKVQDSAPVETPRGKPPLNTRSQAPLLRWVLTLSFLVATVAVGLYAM

N-methyl protoporphyrin IX [N-methyl PP]
brain damage in ICH by T2-weighted MRI (ICH-induced brain damage; N-methyl PP pretreatment one hour before collagenase-induced ICH, P=0.043): significantly reduced
number of TUNEL positive cells relative to saline treated control group ([1]; N-methyl PP 100 mg/kg i.p. pretreatment, P=0.000039): 14%
inhibition of ferrochelatase (ferrochelatase): potently inhibited
reduction of ZnPP fluorescence in brain tissue versus no treatment ([2]; N-methyl PP 100 mg/kg i.p. one hour before ICH induction, P=0.0037): about two thirds

hemin
astrocyte toxicity in hypoxia (primary astrocytes): did not
neuron toxicity under hypoxia (primary neurons; hypoxia): significant dose-dependent increases
cell death in normoxia (primary neurons): Neither ZnPP nor hemin induced significant cell death

c1ccc(CN(CCN(Cc2ccccn2)Cc2ccccn2)Cc2ccccn2)nc1 [TPEN, N,N,N′,N′-tetrakis-(2-Pyridylmethyl)ethylenediamine]
hyperintense lesion on T2-weighted MRI (brain damage) (ICH-induced brain damage; TPEN pretreatment, 24 hours after collagenase-induced ICH): significantly reduced
TUNEL signal (cell death) at edge of hemorrhagic area ([1]; TPEN 10 mg/kg i.p. one hour before collagenase injection): markedly decreased
zinc-induced ZnPP generation in hypoxic blood (whole rat blood): decreased
zinc fluorescence signal (Fluozin-3) around hemorrhagic area [3]: significantly reduced
ZnPP formed at the hemorrhagic hemisphere (fluorescence intensity at 588 nm) [4]: significantly reduced
ZnPP fluorescence on brain slices ([2]; TPEN pretreatment, 24 hours after collagenase injection, P=0.0034): significantly decreased

C=CC1=C(C)c2cc3[n-]c(cc4nc(cc5[n-]c(cc1n2)c(C)c5C=C)C(C)=C4CCC(=O)O)c(CCC(=O)O)c3C.[Zn+2] [ZnPP, zinc protoporphyrin]
astrocyte toxicity in hypoxia (primary astrocytes): dose dependent increase in toxicity
brain damage area on T2-weighted MRI after ZnPP injection [5]: significantly increased
level significantly decreasing HO-1 activity (heme oxygenase-1 (HO-1)): 0.15
neuron toxicity under hypoxia (primary neurons; hypoxia): significant dose-dependent increases
toxicity in hypoxia compared with hemin (neurons) (primary neurons; hypoxia, 2.5 μM P=0.0092, 5 μM P=0.0046, 7.5 μM P=0.0059): greater than that of hemin
cell death in normoxia (primary neurons): Neither ZnPP nor hemin induced significant cell death
